Series [1] concerns the target SARS-CoV PLP (Severe acute respiratory syndrome coronavirus, UniProt P0C6X7). The following applies: cited from earlier work.
Series [2] has as its target 3CLPro/Mpro of SARS-CoV (Severe acute respiratory syndrome coronavirus, UniProt P0C6X7). The following applies: cited from earlier work.
Series [3] has as its target SARS-CoV N protein (Severe acute respiratory syndrome coronavirus, UniProt P59595). The following applies: cited from earlier work.
Series [4] has as its target 3CLpro from the first SARS-CoV (Severe acute respiratory syndrome coronavirus, UniProt P0C6X7). The following applies: cited from earlier work.
Series [5] has as its target PLP of SARS-CoV-2 (Severe acute respiratory syndrome coronavirus 2, UniProt P0DTD1). The following applies: cited from earlier work.
The subject of series [6] is SARS-CoV-2 pseudotyped lentiviral vectors. The conditions noted are these: blocked entry of pseudotyped lentiviral vectors; cited from earlier work.
Series [7] deals with SARS-CoV-2 replicating virus in Vero cells. The following applies: virus replication; cited from earlier work.
In series [8] the test system is SARS-CoV-2 strain. The following applies: plaque reduction neutralization test; read-out: PRNT50; cited from earlier work. On the technique in general: Plaques are areas of infected cells; plaque reduction assays count them against a control.
In series [9] the test system is peripheral blood mononuclear cells (PBMC). Briefly: MTT cytotoxicity assay in PBMCs. The following applies: different concentrations, 24 h (FIG. 17). In general terms: Tetrazolium dyes change colour on reduction, which living cells bring about.
Series [10] concerns common cold. The conditions noted are these: after 7 days of treatment, 23 mg; placebo 46%; cited from earlier work.

The text below walks through data of US12171782B2 (priority 2020, dated 2024).

SARS-CoV N protein, sequence (P59595 whole entry, looked up): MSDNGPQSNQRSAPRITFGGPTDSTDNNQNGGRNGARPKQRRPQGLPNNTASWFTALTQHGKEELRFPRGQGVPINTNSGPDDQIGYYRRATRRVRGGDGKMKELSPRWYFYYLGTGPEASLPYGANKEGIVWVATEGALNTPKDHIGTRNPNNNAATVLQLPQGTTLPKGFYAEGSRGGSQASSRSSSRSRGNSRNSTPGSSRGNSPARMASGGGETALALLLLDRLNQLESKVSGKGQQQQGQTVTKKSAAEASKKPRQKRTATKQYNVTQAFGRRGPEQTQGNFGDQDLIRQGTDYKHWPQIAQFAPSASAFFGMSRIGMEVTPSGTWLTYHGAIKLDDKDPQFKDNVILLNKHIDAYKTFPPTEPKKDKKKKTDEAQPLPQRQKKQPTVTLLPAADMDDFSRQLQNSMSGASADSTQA

For `[Ca+2]` [Ca], in [1], the “effects on the activity of PLP” value is reported as “no effects”.
For the molecule `[Co+2]` [Co], the “effects on the activity of PLP” value in series [1] is on record as “no effects”.
As to `[Mg]` [Mg], the “effects on the activity of PLP” value in [1] was “no effects”.
For the molecule `[Mn]` [Mn], in [1], the “effects on the activity of PLP” value is “no effects”.
In the case of `[Ni]` [Ni], in [1], the “effects on the activity of PLP” value was “no effects”.
As a reminder, the IC50 is the concentration that gives 50% inhibition. What is called Ki is the equilibrium dissociation constant of an inhibitor or competing ligand from its target. Turning to `[Zn+2]` [Zn^2+], the IC50 in series [1] is 1300 nM. Moreover, the Ki in series [2] was 1100 nM.
In the case of (−)-gallocatechin gallate, in series [3], the IC50 was 0.05 µg/mL.
For the molecule Epigallocatechin-3-gallate [EGCG], the IC50 in series [4] was 73000 nM; in series [6], 2.47 µg/mL; in [7], 1.73 µg/mL. Further, the “inhibition of the recombinant 3CLpro/Mpro” value in series [4] is “over 85%”. The “binding affinity to PLP core structure” value in [5] is “highest binding affinity”. Moreover, the EC50 in series [8] was 200 nM. In addition, the cell viability result in series [9] is “a decrease in viability”.
As to N-ethyl-N-phenyl-dithio-carbamate-Zinc, the IC50 in series [1] is 3300 nM.
With Zinc gluconate, the subjects asymptomatic in series [10] is reported as 86%.
